Measured values reported in ChEMBL document CHEMBL5532672, “Discovery of 2-Ethoxy-5-isobutyramido-N-1-substituted Benzamide Derivatives as Selective Kv2.1 Inhibitors with In Vivo Neuroprotective Effects” (J Med Chem, 2024).
Active and inactive are the calls of the source. No cut-off for these calls is given here.

Key:
[1] = target: T1, Potassium voltage-gated channel subfamily B member 1 (Homo sapiens, UniProt Q14721); experiment: Inhibition of human KV2.1 stably expressed in HEK293 cells by whole cell patch-clamp assay; format: cell-based
T1 sequence (Q14721 whole entry): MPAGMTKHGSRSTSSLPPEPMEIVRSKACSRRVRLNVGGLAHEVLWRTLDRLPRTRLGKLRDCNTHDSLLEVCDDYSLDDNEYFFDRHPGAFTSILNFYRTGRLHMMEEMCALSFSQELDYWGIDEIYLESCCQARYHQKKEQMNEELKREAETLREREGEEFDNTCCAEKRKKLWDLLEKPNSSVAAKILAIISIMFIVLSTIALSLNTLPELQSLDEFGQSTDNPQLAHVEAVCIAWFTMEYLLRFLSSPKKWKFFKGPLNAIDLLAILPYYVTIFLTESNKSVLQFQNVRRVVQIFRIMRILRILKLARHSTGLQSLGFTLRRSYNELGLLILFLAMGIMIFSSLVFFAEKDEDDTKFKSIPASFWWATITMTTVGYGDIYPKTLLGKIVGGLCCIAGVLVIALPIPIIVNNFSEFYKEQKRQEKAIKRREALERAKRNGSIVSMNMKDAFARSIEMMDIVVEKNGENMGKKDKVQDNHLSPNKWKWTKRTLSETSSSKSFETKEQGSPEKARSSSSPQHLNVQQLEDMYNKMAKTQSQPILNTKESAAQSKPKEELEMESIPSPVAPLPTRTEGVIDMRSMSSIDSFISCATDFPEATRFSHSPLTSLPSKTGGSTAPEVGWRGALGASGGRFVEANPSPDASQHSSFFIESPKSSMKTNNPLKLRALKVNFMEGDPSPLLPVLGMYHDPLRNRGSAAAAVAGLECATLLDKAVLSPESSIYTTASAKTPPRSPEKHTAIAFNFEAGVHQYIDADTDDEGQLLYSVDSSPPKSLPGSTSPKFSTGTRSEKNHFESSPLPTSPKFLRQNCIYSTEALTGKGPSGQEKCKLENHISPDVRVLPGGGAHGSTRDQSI

[2] = target: T2, Potassium voltage-gated channel subfamily B member 1 (Homo sapiens) (UniProt Q14721); experiment: Inhibition of human KV2.1 stably expressed in HEK293 cells at 1 uM by whole cell patch-clamp assay; format: cell-based
T2 sequence (whole entry): T1 sequence (Q14721 whole entry)

[3] = target: Potassium voltage-gated channel subfamily A member 5 (Homo sapiens, UniProt P22460); experiment: Inhibition of KV1.5 (unknown origin) by whole cell patch-clamp assay
Chain of Potassium voltage-gated channel subfamily A member 5 (P22460 whole entry): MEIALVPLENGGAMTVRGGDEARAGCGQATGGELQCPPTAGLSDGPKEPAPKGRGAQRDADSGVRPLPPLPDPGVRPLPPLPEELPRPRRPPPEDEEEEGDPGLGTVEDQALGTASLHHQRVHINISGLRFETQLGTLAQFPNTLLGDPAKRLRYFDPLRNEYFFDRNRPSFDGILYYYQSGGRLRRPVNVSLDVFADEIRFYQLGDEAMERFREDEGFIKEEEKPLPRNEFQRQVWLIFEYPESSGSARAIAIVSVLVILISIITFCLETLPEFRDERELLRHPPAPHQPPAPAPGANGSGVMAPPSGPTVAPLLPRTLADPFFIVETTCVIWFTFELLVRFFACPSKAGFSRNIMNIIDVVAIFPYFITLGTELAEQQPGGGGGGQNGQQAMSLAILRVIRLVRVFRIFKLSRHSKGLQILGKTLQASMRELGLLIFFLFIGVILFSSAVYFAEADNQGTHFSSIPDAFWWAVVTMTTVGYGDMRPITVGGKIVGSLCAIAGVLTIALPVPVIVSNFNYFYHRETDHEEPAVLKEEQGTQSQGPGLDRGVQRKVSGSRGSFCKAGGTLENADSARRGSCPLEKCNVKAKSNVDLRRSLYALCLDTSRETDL

[4] = target: Voltage-gated inwardly rectifying potassium channel KCNH2 (Homo sapiens, UniProt Q12809); experiment: Inhibition of human ERG by whole cell patch-clamp assay; format: toxicity
Chain of Voltage-gated inwardly rectifying potassium channel KCNH2 (Q12809 whole entry): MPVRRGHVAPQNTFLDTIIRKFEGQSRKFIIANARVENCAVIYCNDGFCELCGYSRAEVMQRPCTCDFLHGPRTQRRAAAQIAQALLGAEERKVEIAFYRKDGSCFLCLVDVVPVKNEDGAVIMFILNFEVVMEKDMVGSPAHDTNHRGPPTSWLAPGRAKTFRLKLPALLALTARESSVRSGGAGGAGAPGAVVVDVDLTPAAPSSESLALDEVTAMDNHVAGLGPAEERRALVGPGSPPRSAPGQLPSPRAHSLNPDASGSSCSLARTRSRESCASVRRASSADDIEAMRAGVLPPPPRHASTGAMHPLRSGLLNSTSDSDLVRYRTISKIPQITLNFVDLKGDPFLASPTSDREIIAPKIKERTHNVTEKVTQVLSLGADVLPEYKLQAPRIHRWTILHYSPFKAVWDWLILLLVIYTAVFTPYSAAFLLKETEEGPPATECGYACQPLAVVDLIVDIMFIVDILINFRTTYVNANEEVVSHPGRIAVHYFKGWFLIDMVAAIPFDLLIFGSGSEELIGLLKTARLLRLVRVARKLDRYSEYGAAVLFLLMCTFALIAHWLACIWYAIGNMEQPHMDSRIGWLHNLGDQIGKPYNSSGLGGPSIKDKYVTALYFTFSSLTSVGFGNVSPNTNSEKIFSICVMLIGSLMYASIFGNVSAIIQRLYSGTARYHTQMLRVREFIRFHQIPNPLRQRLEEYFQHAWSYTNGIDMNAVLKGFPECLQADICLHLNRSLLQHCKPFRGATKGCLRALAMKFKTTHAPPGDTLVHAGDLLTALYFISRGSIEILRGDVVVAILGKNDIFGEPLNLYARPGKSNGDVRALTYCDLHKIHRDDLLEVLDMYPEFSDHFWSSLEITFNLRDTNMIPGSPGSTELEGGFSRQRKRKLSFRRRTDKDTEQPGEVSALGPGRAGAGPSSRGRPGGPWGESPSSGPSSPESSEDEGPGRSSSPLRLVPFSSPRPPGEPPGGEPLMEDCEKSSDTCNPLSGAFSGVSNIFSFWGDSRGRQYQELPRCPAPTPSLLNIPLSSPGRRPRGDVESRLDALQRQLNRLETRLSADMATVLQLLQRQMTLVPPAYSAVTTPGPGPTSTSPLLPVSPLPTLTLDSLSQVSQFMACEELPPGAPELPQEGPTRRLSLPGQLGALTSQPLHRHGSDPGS

[5] = target: T3, Voltage-gated potassium channel KCNC1 (Homo sapiens, UniProt P48547); experiment: Inhibition of KV3.1 (unknown origin) by whole cell patch-clamp assay
T3 sequence (P48547 whole entry): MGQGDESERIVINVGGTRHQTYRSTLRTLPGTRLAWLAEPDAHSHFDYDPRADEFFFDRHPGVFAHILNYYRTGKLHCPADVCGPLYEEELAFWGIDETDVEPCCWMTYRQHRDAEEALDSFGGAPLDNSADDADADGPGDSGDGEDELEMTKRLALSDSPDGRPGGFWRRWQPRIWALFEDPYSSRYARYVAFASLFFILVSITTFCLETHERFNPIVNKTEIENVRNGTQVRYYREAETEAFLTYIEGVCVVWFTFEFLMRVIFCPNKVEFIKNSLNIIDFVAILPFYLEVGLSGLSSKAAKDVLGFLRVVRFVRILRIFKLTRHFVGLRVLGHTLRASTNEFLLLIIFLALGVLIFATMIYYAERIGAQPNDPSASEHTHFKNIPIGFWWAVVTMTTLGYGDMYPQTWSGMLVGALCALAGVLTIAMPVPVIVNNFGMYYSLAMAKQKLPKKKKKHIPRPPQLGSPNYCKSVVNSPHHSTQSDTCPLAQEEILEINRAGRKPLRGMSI

| SMILES | IC50 [1] | further results |
| --- | --- | --- |
| CCOc1ccc(NC(=O)C(F)(F)F)cc1C(=O)NC(C)c1cccc(-c2nccs2)c1 (stereo not drawn) | > 10000 nM |  |
| CCOc1ccc(NC(=O)C(C)C)cc1C(=O)N(C)Cc1cccc(-c2nccs2)c1 |  | inhibition [2]: inactive |
| CCOc1ccc(NC(=O)c2ccccc2)cc1C(=O)NCc1cccc(-c2nccs2)c1 |  | inhibition [2]: inactive |
| CCOc1ccc(NC(=O)C2CCC2)cc1C(=O)NC(C)c1cccc(-c2nccs2)c1 (stereo not drawn) | 550 nM |  |
| CCOc1ccc(NC(=O)C(C)C)cc1C(=O)NC(C)c1ccccc1 (stereo not drawn) | ~1000 nM |  |
| CCOc1ccc(NC(=O)CC)cc1C(=O)NC(C)c1cccc(-c2nccs2)c1 (stereo not drawn) | ~10000 nM |  |
| CCOc1ccc(N2CCCC2=O)cc1C(=O)NCc1cccc(-c2nccs2)c1 |  | inhibition [2]: inactive |
| CC(C)C(=O)Nc1ccc(N(C)C)c(C(=O)NCc2ccncc2)c1 |  | inhibition [2]: inactive |
| CCOc1ccc(NC(=O)C(C)C)cc1C(=O)NC(C)c1cncc(C)n1 (stereo not drawn) | > 1000 nM |  |
| CCOc1ccc(NC(=O)C(C)C)cc1C(=O)NCc1cccc(-c2ccccn2)c1 | > 1000 nM |  |
| COc1ccc(NC(=O)C(C)C)cc1C(=O)NC(C)c1cccc(-c2nccs2)c1 (stereo not drawn) | 3000 nM |  |
| CCOc1ccc(NC(=O)C(C)C)cc1C(=O)NC(C)c1cccc(F)n1 (stereo not drawn) | 320 nM |  |
| CCOc1ccc(NC(=O)C(C)C)cc1C(=O)NC(C)c1cccc(-c2ncccn2)c1 (stereo not drawn) | 660 nM |  |
| CC(C)COc1ccc(NC(=O)C(C)C)cc1C(=O)NC(C)c1cccc(-c2nccs2)c1 (stereo not drawn) | > 1000 nM |  |
| CCOc1ccc(NC(=O)C(C)C)cc1C(=O)NCc1cccc(OC(F)F)c1 | 300 nM | IC50 [3]: 14200 nM; IC50 [5]: > 30000 nM; IC50 [4]: 30000 nM |
| CCOc1ccc(NC(C)=O)cc1C(=O)NC(C)c1cccc(-c2nccs2)c1 (stereo not drawn) | ~10000 nM |  |

| SMILES | IC50 [1] | further results |
| --- | --- | --- |
| CCOc1ccc(NC(=O)C(C)C)cc1C(=O)NCc1cccc(OC(F)(F)F)c1 | 337 nM |  |
| CCOc1ccc(NC(=O)C(C)C)cc1C(=O)NC(C)c1cccc(-c2nccs2)c1 (stereo not drawn) | 430 nM | IC50 [3]: 10000 nM; IC50 [5]: > 30000 nM; IC50 [4]: > 30000 nM |
| CCOc1ccc(NC(=O)C(C)C)cc1C(=O)NC(C)c1cccc(C)c1 (stereo not drawn) | 80 nM | IC50 [3]: 5700 nM; IC50 [5]: > 30000 nM; IC50 [4]: 30000 nM |
| CCOc1ccc(NC(=O)C(C)C)cc1C(=O)NC(C)c1cccc(Cl)n1 (stereo not drawn) | ~1000 nM |  |
| CC(C)C(=O)Nc1ccc(OCC(F)(F)F)c(C(=O)NCc2cccc(-c3nccs3)c2)c1 | > 1000 nM |  |
| CC(C)C(=O)Nc1cccc(C(=O)NC(C)c2cccc(-c3nccs3)c2)c1 (stereo not drawn) | > 1000 nM |  |
| CC(C)C(=O)Nc1ccc(N(C)C)c(C(=O)NCc2cccnc2)c1 | > 1000 nM |  |
| CC(C)C(=O)Nc1ccc(N(C)C)c(C(=O)NCc2cccc(-c3nccs3)c2)c1 | 390 nM | IC50 [3]: 11000 nM; IC50 [5]: > 30000 nM; IC50 [4]: 30000 nM |
| CCOC(=O)Nc1ccc(OCC)c(C(=O)NC(C)c2cccc(-c3nccs3)c2)c1 (stereo not drawn) | 1100 nM |  |
| CCOc1ccc(NC(=O)C2CCCC2)cc1C(=O)NC(C)c1cccc(-c2nccs2)c1 (stereo not drawn) | > 10000 nM |  |
| CCOc1ccc(C(=O)NC(C)C)cc1C(=O)NCc1cccc(-c2nccs2)c1 |  | inhibition [2]: inactive |
| CCOc1ccc(NC(=O)C(C)C)cc1C(=O)NC(C)c1cccc(Br)n1 (stereo not drawn) | ~1000 nM |  |
| CCOc1ccc(N(C)C(=O)C(C)C)cc1C(=O)NCc1cccc(-c2nccs2)c1 |  | inhibition [2]: inactive |
| CC(C)C(=O)Nc1ccc(N(C)C)c(C(=O)NCc2ccccn2)c1 | 540 nM | IC50 [3]: > 30000 nM; IC50 [5]: > 30000 nM; IC50 [4]: 30000 nM |
| CCOc1ccc(NC(=O)C(C)C)cc1C(=O)NC(C)c1ccnc(Cl)n1 (stereo not drawn) | ~1000 nM |  |
| CCOc1ccc(NC(=O)C(C)C)cc1C(=O)NC(C)c1ccnc(OC)n1 (stereo not drawn) | ~1000 nM |  |

Now from value to compound, other results behind:

| IC50 [1] | SMILES | further results |
| --- | --- | --- |
| 430 nM | CCOc1ccc(NC(=O)C(C)C)cc1C(=O)NC(C)c1ccnc(OC)c1 (stereo not drawn) |  |
| > 1000 nM | CC(C)Oc1ccc(NC(=O)C(C)C)cc1C(=O)NC(C)c1cccc(-c2nccs2)c1 (stereo not drawn) |  |
| ~1000 nM | CCOc1ccc(NC(=O)C(C)C)cc1C(=O)NC(C)c1cccc(N2CCCC2)c1 (stereo not drawn) |  |
| 320 nM | CCOc1ccc(NC(=O)C(C)C)cc1C(=O)NC(C)c1cccc(N2CCC2)c1 (stereo not drawn) |  |
| 480 nM | CC(C)C(=O)Nc1ccc(N(C)C)c(C(=O)NC(C)c2ccccc2)c1 (racemic) |  |
| 1000 nM | CCOc1ccc(NC(=O)OC(C)C)cc1C(=O)NC(C)c1cccc(-c2nccs2)c1 (stereo not drawn) |  |
| > 1000 nM | CC(C)C(=O)Nc1ccc(N(C)C)c(C(=O)NCc2cccc(-c3ccco3)c2)c1 |  |
| 250 nM | CCOc1ccc(NC(=O)C(C)C)cc1C(=O)NC(C)c1cccc(OC(F)F)c1 (stereo not drawn) | IC50 [3]: 10000 nM; IC50 [4]: 10000 nM |
| ~1000 nM | CCOc1ccc(NC(=O)C(C)C)cc1C(=O)NC(C)c1cccc(Br)c1 (stereo not drawn) |  |
| > 1000 nM | CC(C)C(=O)Nc1ccc(OCC(F)(F)F)c(C(=O)NC(C)c2cccc(-c3nccs3)c2)c1 (stereo not drawn) |  |
| > 1000 nM | CC(C)C(=O)Nc1ccc(N(C)C)c(C(=O)NCc2cccc3ccccc23)c1 |  |
| 1100 nM | CCOc1ccc(NC(=O)C2CC2)cc1C(=O)NC(C)c1cccc(-c2nccs2)c1 (stereo not drawn) |  |
| ~1000 nM | CCOc1ccc(NC(=O)C(C)C)cc1C(=O)NC(C)c1ccnc(C)n1 (stereo not drawn) |  |
| 370 nM | CCOc1ccc(NC(=O)C(C)C)cc1C(=O)NC(C)c1cccc(OC)c1 (stereo not drawn) |  |
| 590 nM | CCCOc1ccc(NC(=O)C(C)C)cc1C(=O)NC(C)c1cccc(-c2nccs2)c1 (stereo not drawn) |  |
| > 1000 nM | CCOc1ccc(NC(=O)C(C)C)cc1C(=O)NC(C)c1ccnc(NC)n1 (stereo not drawn) |  |
| 50 nM | CCOc1ccc(NC(=O)C(C)C)cc1C(=O)NC(C)c1cccc(OC)n1 (stereo not drawn) | IC50 [3]: 10000 nM; IC50 [4]: > 30000 nM |
| ~1000 nM | CCOc1ccc(NC(=O)C(C)C)cc1C(=O)NCc1cccc(Br)c1 |  |
| 3550 nM | CC(C)C(=O)Nc1ccc(N(C)C)c(C(=O)NCc2cccc(-c3ccccc3)c2)c1 |  |
| 530 nM | CCOc1ccc(NC(=O)C(C)C)cc1C(=O)NCc1cccc(-c2nccs2)c1 |  |
| ~1000 nM | CCOc1ccc(NC(=O)C(C)C)cc1C(=O)NCc1cccc(N2CCCC2)c1 |  |
| 10000 nM | CCOc1ccc(NS(=O)(=O)CC)cc1C(=O)NC(C)c1cccc(-c2nccs2)c1 (stereo not drawn) |  |
